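Where inhibition never reached the appropriate level, the endpoint shown equals the highest concentration tested. Otherwise, values were interpolated linearly from a five-concentration, 48-hour dose response in 96-well plates. At the GI50, growth is halved.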 Activity calls are given as the source filed them. Rule as the data show it: active = GI50 up to about 1.1 µM and inactive = higher.
Assays:
Test in all cases: inhibition of tumour cell growth, NCI panel, 48 h
[1] = tested on: Malme-3M
[2] = tested on: UACC-257
[3] = tested on: MCF7
[4] = tested on: MOLT-4
[5] = tested on: NCI-H226
[6] = tested on: UO-31
[7] = tested on: SNB-19
[8] = tested on: PC-3
[9] = tested on: HOP-62
[10] = tested on: SR
[11] = tested on: 786-0
[12] = tested on: BT-549
[13] = tested on: M14
[14] = tested on: NCI-H522
[15] = tested on: EKVX
[16] = tested on: SK-MEL-28
[17] = tested on: SK-MEL-2
[18] = tested on: OVCAR-8
[19] = tested on: NCI/ADR-RES
[20] = tested on: DU-145
[21] = tested on: T47D
[22] = tested on: ACHN
[23] = tested on: MDA-MB-435
[24] = tested on: A549
[25] = tested on: MDA-N
[26] = tested on: OVCAR-4
[27] = tested on: Hs-578T
[28] = tested on: RXF 393
[29] = tested on: SN12C
[30] = tested on: OVCAR-5
[31] = tested on: HCT-116
[32] = tested on: KM12
[33] = tested on: CAKI-1
[34] = tested on: A498
[35] = tested on: HCC 2998
[36] = tested on: HCT-15
[37] = tested on: COLO 205
[38] = tested on: OVCAR-3
[39] = tested on: NCI-H460
[40] = tested on: LOX IMVI
[41] = tested on: UACC-62
[42] = tested on: MDA-MB-231
[43] = tested on: IGROV-1
[44] = tested on: SF-539
[45] = tested on: CCRF-CEM
[46] = tested on: HOP-92
[47] = tested on: SF-295
[48] = tested on: SK-OV-3
[49] = tested on: HT-29
[50] = tested on: K562
[51] = tested on: TK-10
[52] = tested on: SW-620
[53] = tested on: NCI-H23
[54] = tested on: SK-MEL-5
[55] = tested on: RPMI-8226
[56] = tested on: SF-268
[57] = tested on: SNB-75
[58] = tested on: U-251
[59] = tested on: HL-60

## O=C(/C=C/c1ccco1)CC(=O)/C=C/c1ccco1
[1]
  GI50: 13 µM (inactive)
[2]
  GI50: 37.8 µM (inactive)
[3]
  GI50: 8.32 µM (inactive)
[4]
  GI50: 12 µM (inactive)
[5]
  GI50: > 10 µM (inactive)
[6]
  GI50: 13.3 µM (inactive)
[7]
  GI50: 15.5 µM (inactive)
[8]
  GI50: > 10 µM (inactive)
[9]
  GI50: 11.7 µM (inactive)
[10]
  GI50: 4.66 µM (inactive)
[11]
  GI50: 12.7 µM (inactive)
[12]
  GI50: 18.2 µM (inactive)
[13]
  GI50: 14.7 µM (inactive)
[14]
  GI50: 7.31 µM (inactive)
[15]
  GI50: 20.5 µM (inactive)
[16]
  GI50: 12.2 µM (inactive)
[17]
  GI50: 14.3 µM (inactive)
[18]
  GI50: 17.7 µM (inactive)
[19]
  GI50: 12.8 µM (inactive)
[20]
  GI50: > 10 µM (inactive)
[21]
  GI50: 8.67 µM (inactive)
[22]
  GI50: 14.8 µM (inactive)
[23]
  GI50: 10.1 µM (inactive)
[24]
  GI50: 14.4 µM (inactive)
[25]
  GI50: 8.04 µM (inactive)
[26]
  GI50: 15.5 µM (inactive)
[27]
  GI50: 16.4 µM (inactive)
[28]
  GI50: 4.58 µM (inactive)
[29]
  GI50: 10.1 µM (inactive)
[30]
  GI50: 16.9 µM (inactive)
[31]
  GI50: 11.4 µM (inactive)
[32]
  GI50: 28.8 µM (inactive)
[33]
  GI50: 14.7 µM (inactive)
[34]
  GI50: 20.9 µM (inactive)
[35]
  GI50: 12.8 µM (inactive)
[36]
  GI50: 12.5 µM
[37]
  GI50: > 10 µM (inactive)
[38]
  GI50: > 10 µM (inactive)
[39]
  GI50: 14.4 µM (inactive)
[40]
  GI50: 4.99 µM (inactive)
[41]
  GI50: 13.5 µM (inactive)
[42]
  GI50: > 10 µM (inactive)
[43]
  GI50: 16.8 µM (inactive)
[44]
  GI50: 13.9 µM (inactive)
[45]
  GI50: 6.17 µM (inactive)
[46]
  GI50: 28.8 µM (inactive)
[47]
  GI50: > 10 µM (inactive)
[48]
  GI50: > 10 µM (inactive)
[49]
  GI50: > 10 µM (inactive)
[50]
  GI50: 9.89 µM (inactive)
[51]
  GI50: 26.3 µM (inactive)
[52]
  GI50: 10.9 µM (inactive)
[53]
  GI50: 12.2 µM (inactive)
[54]
  GI50: 12.3 µM (inactive)
[55]
  GI50: 8.38 µM (inactive)
[56]
  GI50: > 10 µM (inactive)
[57]
  GI50: 18 µM (inactive)
[58]
  GI50: 13.7 µM (inactive)
[59]
  GI50: 5.55 µM (inactive)

## CC(C)=CCC/C(=C/CC/C(=C\CCc1ccoc1)C(=O)O)C(=O)O
[1]
  GI50: > 100 µM (inactive)
[2]
  GI50: > 100 µM (inactive)
[3]
  GI50: > 100 µM (inactive)
[4]
  GI50: > 100 µM (inactive)
[5]
  GI50: > 100 µM (inactive)
[6]
  GI50: > 100 µM (inactive)
[7]
  GI50: > 100 µM (inactive)
[8]
  GI50: > 100 µM (inactive)
[9]
  GI50: > 100 µM (inactive)
[10]
  GI50: > 10 µM (inactive)
[11]
  GI50: > 100 µM (inactive)
[12]
  GI50: > 100 µM (inactive)
[13]
  GI50: > 100 µM (inactive)
[14]
  GI50: > 100 µM (inactive)
[15]
  GI50: > 100 µM (inactive)
[16]
  GI50: > 100 µM (inactive)
[17]
  GI50: > 100 µM (inactive)
[18]
  GI50: > 100 µM (inactive)
[19]
  GI50: > 100 µM (inactive)
[20]
  GI50: > 100 µM (inactive)
[21]
  GI50: > 100 µM (inactive)
[22]
  GI50: > 100 µM (inactive)
[23]
  GI50: > 100 µM (inactive)
[24]
  GI50: > 100 µM (inactive)
[25]
  GI50: > 100 µM (inactive)
[26]
  GI50: > 100 µM (inactive)
[27]
  GI50: > 100 µM (inactive)
[28]
  GI50: > 100 µM (inactive)
[29]
  GI50: > 100 µM (inactive)
[30]
  GI50: > 100 µM (inactive)
[31]
  GI50: > 100 µM (inactive)
[32]
  GI50: > 100 µM (inactive)
[33]
  GI50: > 100 µM (inactive)
[34]
  GI50: > 100 µM (inactive)
[35]
  GI50: > 100 µM (inactive)
[36]
  GI50: > 100 µM
[37]
  GI50: > 100 µM (inactive)
[38]
  GI50: > 100 µM (inactive)
[40]
  GI50: > 100 µM (inactive)
[41]
  GI50: > 100 µM (inactive)
[42]
  GI50: > 100 µM (inactive)
[43]
  GI50: > 100 µM (inactive)
[44]
  GI50: > 100 µM (inactive)
[45]
  GI50: > 100 µM (inactive)
[46]
  GI50: > 100 µM (inactive)
[47]
  GI50: > 100 µM (inactive)
[48]
  GI50: > 100 µM (inactive)
[49]
  GI50: > 100 µM (inactive)
[50]
  GI50: > 100 µM (inactive)
[51]
  GI50: > 100 µM (inactive)
[52]
  GI50: > 100 µM (inactive)
[53]
  GI50: > 100 µM (inactive)
[54]
  GI50: > 100 µM (inactive)
[55]
  GI50: > 100 µM (inactive)
[56]
  GI50: > 100 µM (inactive)
[57]
  GI50: > 100 µM (inactive)
[58]
  GI50: > 100 µM (inactive)
[59]
  GI50: > 100 µM (inactive)
